According to patent publication US5804555A, “Antioxidant” (Morinaga Milk Industry Co., Ltd., priority 1992, dated 1998):

How the values were obtained:
[1] = Test 2: inducing period of linoleic acid oxidation (days until absorbance of 0.2 is exceeded); type: biochemical; conditions: single addition, final concentration 0.1% in linoleic acid
Protocol: The following 11 kinds of sample were prepared.
Sample 2: A sample prepared by adding a hydrolysate of lactoferrin (prepared by the same method as in the Example 2) to linoleic acid to achieve a final concentration of 0.1%;
Sample 3: A sample prepared by adding peptides (prepared by the same method as in the Example 3) to linoleic acid to achieve a final concentration of 0.1%;
Sample 4: A sample prepared by adding vitamin E (dl-α tocopherol the same one as in the Test 1) to linoleic acid to achieve a final concentration of 0.1%;
Sample 5: A sample prepared by adding superoxide dismutase (manufactured by Sigma Company) to linoleic acid to achieve a final concentration of 0.1%;
Sample 6: A sample prepared by adding β-carotene (manufactured by Nakaraitesk Company) to linoleic acid to achieve a final concentration of 0.1%;
Sample 7: A sample prepared by adding vitamin C (manufactured by Nakaraitesk Company) to linoleic acid to achieve a final concentration of 0.1%; […]
Absorbance was measured by the same method as in the Test 1, and with the number of days until an absorbance of 0.2 is exceeded as the inducing period, antioxidant effect was tested.

[2] = Test 1: antioxidant effect on linoleic acid, peroxides by ferric thiocyanate method; type: biochemical; conditions: 0.2% added to linoleic acid, 60° C.
Protocol: A sample was prepared by adding dl-α tocopherol (manufactured by Wako Jun-yaku Kogyo Company), bovine lactoferrin (manufactured by Sigma Company), hydrolysate of lactoferrin (prepared by the same method as in the Example 2), or peptide (prepared by the same method as in the Example 3) to a final concentration of 0.2% (weight percentage; same applies hereafter except for the degree of decomposition) to commercially available linoleic acid (manufactured by Wako Jun-Yaku Kogyo Company) containing no additive. Hereafter, the thus prepared samples are individually referred to as […].
Antioxidant effect of the individual samples was tested by the method of Mitsuda et al.(Eiyo to Shokuryo, Vol. 19, p. 210, 1966) described below.
The above-mentioned samples were added to a mixed solution containing 10 ml of ethanol, 10 ml of 0.1M phosphate buffer solution (pH: 7.0), and 5 ml of deionized water so as to achieve a final concentration of linoleic acid of […](mol/l). This solution was placed in a vial bottle having a capacity of 50 ml, and the closely plugged bottle was held in an incubator at 60° C. The total volume was always adjusted to 25 ml by reducing the above-mentioned ionized water, depending upon the quantity of added sample. At prescribed time intervals, 0.1 ml was sampled from this vial bottle to measure the quantity of peroxides by the following ferric thiocyanate method.
To the sample solution in an amount of 0.1 ml, 4.7 ml of 75% ethanol, 0.1 ml of 30% ammonium rhodanide, and 0.1 ml of 3.5% hydrochloric acid solution of 2×10^-2 M ferrous chloride were added, and absorbance at 500 nm was measured upon the lapse of just three minutes.

Row | Compound | Inducing period [1] | Degree of peroxidation (absorbance at 500 nm) ([2]; period of preservation 0 days) | Degree of peroxidation (absorbance at 500 nm) ([2]; period of preservation 3 days) | Degree of peroxidation (absorbance at 500 nm) ([2]; period of preservation 6 days) | Degree of peroxidation (absorbance at 500 nm) ([2]; period of preservation 10 days) | Degree of peroxidation (absorbance at 500 nm) ([2]; period of preservation 13 days)
1 | Cc1c(C)c2c(c(C)c1O)CCC(C)(CCCC(C)CCCC(C)CCCC(C)C)O2 (racemic) [Sample 2, dl-α tocopherol] | 8 days | 0 | 0.19 | 0.16 | 0.16 | 0.21
2 | O=C1O[C@H]([C@@H](O)CO)C(O)=C1O [Vitamin C, ascorbic acid] | 8 days | – | – | – | – | –
3 | Superoxide dismutase | 10 days | – | – | – | – | –
4 | CC1=C(/C=C/C(C)=C/C=C/C(C)=C/C=C/C=C(C)/C=C/C=C(C)/C=C/C2=C(C)CCCC2(C)C)C(C)(C)CCC1 [β-carotene] | 14 days | – | – | – | – | –
